Assay results as given in patent US20240188569A1, “NEW YEAST STRAIN AND ITS USES FOR THE CONTROL OF PHYTOPATHOGENS” (AGROVENTURES LLC, priority 2021, published 2024).
Converted amounts (≈) assume the structure as drawn.

Tested on: PT22AV
Test: Minimum inhibitory concentration of fungicides in NYDA agar
Details: for Minimum inhibitory concentration: fungicide against PT22AV, incorporated in NYDA agar; for Resistance level: resistance level of PT22AV to the fungicide; for MIC: Papiliotrema terrestris, read-out: Minimum inhibitory concentration

Which results are given for `CO/C=C(/C(=O)OC)c1ccccc1Oc1cc(Oc2ccccc2C#N)ncn1` [Azoxystrobin]?
Minimum inhibitory concentration: 1000 µg/mL (≈ 2.48 mM); Resistance level: Resistant

`CCCCNC(=O)n1c(NC(=O)OC)nc2ccccc21` [Benomyl] was tested. Which MIC did it give?
The MIC was 1000 µg/mL (≈ 3.44 mM).

What about the Resistance level of the same compound?
The Resistance level was “Resistant”.

What does the source list for `COC(=O)Nc1nc2ccccc2[nH]1` [Carbendazim]?
MIC: 1000 µg/mL (≈ 5.23 mM); Resistance level: Resistant

With `[Cl-].[Cu+2].[Cu+2].[OH-].[OH-].[OH-]` [Copper oxychloride] as the compound, how does the Minimum inhibitory concentration read?
Its Minimum inhibitory concentration is 500 µg/mL.

What about the Resistance level of the same compound?
The Resistance level was “Resistant”.

`N#Cc1c[nH]cc1-c1cccc2c1OC(F)(F)O2` [Fludioxonil] was tested. Which MIC did it give?
Its MIC is 1000 µg/mL (≈ 4.03 mM).

With `C=CCOC(Cn1ccnc1)c1ccc(Cl)cc1Cl` (stereo not drawn) [Imazalil] as the compound, how does the MIC read?
Its MIC is 300 µg/mL (≈ 1.01 mM).

And the Resistance level?
The Resistance level was “Sensitive”.

For `CCCC(Cn1cncn1)c1ccc(Cl)cc1Cl` (stereo not drawn) [Penconazol], which MIC is on record?
Its MIC is 200 µg/mL (≈ 0.704 mM).

What about the Resistance level of the same compound?
Its Resistance level is “Sensitive”.

For `CC12CC1(C)C(=O)N(c1cc(Cl)cc(Cl)c1)C2=O` (stereo not drawn) [Procymidone], which MIC is on record?
The MIC was 1000 µg/mL (≈ 3.52 mM).

What about the Resistance level of the same compound?
The Resistance level was “Resistant”.

How did the MIC turn out when `S1SSSSSSS1` [Sulfur] was run?
The MIC was 2000 µg/mL (≈ 7.8 mM).

And the Resistance level?
Its Resistance level is “Resistant”.

Which results are given for `CC(C)(C)C(O)(CCc1ccc(Cl)cc1)Cn1cncn1` (stereo not drawn) [Tebuconazole]?
MIC: 100 µg/mL (≈ 0.325 mM); Resistance level: Sensitive

How did the MIC turn out when `c1ccc2[nH]c(-c3cscn3)nc2c1` [Thiabendazole] was run?
The MIC was 1000 µg/mL (≈ 4.97 mM).

And the Resistance level?
The Resistance level was “Resistant”.

`CON=C(C(=O)OC)c1ccccc1CON=C(C)c1cccc(C(F)(F)F)c1` [Trifloxystrobin] was tested. Which MIC did it give?
Its MIC is 1000 µg/mL (≈ 2.45 mM).

What about the Resistance level of the same compound?
The Resistance level was “Resistant”.

What does the source list for `C=CC1(C)OC(=O)N(c2cc(Cl)cc(Cl)c2)C1=O` (stereo not drawn) [Vinclozolin]?
MIC: 1000 µg/mL (≈ 3.5 mM); Resistance level: Resistant

How did the Minimum inhibitory concentration turn out when Mancozeb was run?
The Minimum inhibitory concentration was 300 µg/mL.

What about the Resistance level of the same compound?
Its Resistance level is “Sensitive”.
